According to US10017480B2, “Compounds having a selective PDE4D inhibiting activity” (UNIVERSITÂ DEGLI STUDI DI GENOVA, priority 2014, dated 2018):
Where “and” joins values, the source holds several entries; their conditions need not be identical. Equal values may be shown once. Marks after values point to notes of the source that are not given here. Each block holds one molecule with its values, some of them ahead of it.

How the values were obtained:
PDE4C2 = molecular target: T1, PDE4C2 (Homo sapiens, UniProt Q08493); assay: PDE4C2 enzyme inhibition (IMAP); type: biochemical
T1 construct: purchased Scottish Biomedical (Glasgow, Scotland, UK); host or cells: baculoviral system
Description: (§1) Compound's evaluation on PDE4D3, PDE4A4, PDE4B2 and PDE4C2 enzyme assays were performed by Scottish Biomedical (Glasgow, Scotland, UK) using recombinant human PDE enzymes expressed in a baculoviral system. The preliminary screening assays were performed by the IMAP technology (Molecular Devices), which is based on the high affinity binding of phosphate by immobilized metal coordination complexes on nanoparticles. The binding reagent complexes with phosphate groups on nucleotide monophosphate generated from cyclic nucleotides (cAMP) through phosphodiesterases. With fluorescence polarization detection, binding causes a change in the rate of the molecular motion of the phosphate bearing molecule and results in an increase in the fluorescence polarization value observed for the fluorescent label attached to the substrate. […] All compounds were solved in DMSO at 10^−2 M concentration and then diluted with water to the final suitable concentrations. All synthesized compounds were tested preliminary on PDE4D3 at 10^−5 M concentration, in duplicate. Results are expressed as a percent inhibition of control activity (see table 1).
(§2) The IC50 values obtained for the reference compounds are within accepted limits of historic averages obtained (0.5 log unit). IC50 values are reported at μM concentration in table 1. […] The results are reported (as percent of inhibition at 10 μM concentration) in Table 1.

PDE4A4 = PDE4A4 (Homo sapiens, UniProt P27815); assay: PDE4A4 enzyme inhibition (IMAP); type: biochemical
Description: as §1, §2

PDE4B2 = molecular target: T2, PDE4B2 (Homo sapiens, UniProt Q07343); assay: PDE4B2 enzyme inhibition (IMAP); type: biochemical
T2 construct: purchased Scottish Biomedical (Glasgow, Scotland, UK); host or cells: baculoviral system
Description: as §1, §2

PDE4D3 = PDE4D3 (Homo sapiens, UniProt Q08499); assay: PDE4D3 enzyme inhibition (IMAP); type: biochemical; settings: for PDE4D3 % inib at 10 μM: in duplicate; for IC50: five concentrations 10^−8-10^−4 M
Description: as §1
IC50 values are reported at μM concentration in table 1. […] The results are reported (as percent of inhibition at 10 μM concentration) in Table 1.

PDE4D1 = PDE4D1 (Homo sapiens, UniProt Q08499); assay: PDE4D1 enzyme inhibition (IMAP); type: biochemical
PDE4D2 = PDE4D2 (Homo sapiens, UniProt Q08499); assay: PDE4D2 enzyme inhibition (IMAP); type: biochemical
[1] = test system: α2-adrenoceptor-mediated anesthesia; assay: Ketamine/xylazine induced α2-adrenoceptor-mediated anesthesia test (emesis surrogate); type: in vivo, mice; settings: for Time anesthetized: relative to vehicle (set at 100%)
Description: A shorter anesthesia time than that of the vehicle condition would implicate emetic-like effects. Anesthesia time was calculated relatively to the vehicle condition, which itself was set at 100%, to control for repeated exposure to the test.

HTLA cells = assay: Genotoxicity, Western blot of γ-H2AX; type: cell-based, human; settings: 100 μM
Description: To evaluate the genotoxic potential of XVIIIa and GEBR-7b, we analyzed the phosphorylation of the chromatin-bound histone H2AX (γ-H2AX), which is a quantitative marker for the DNA damage response at the site of double-strand breaks.
The H2AX signal represents the internal loading control.

[2] = test system: spatial object memory performance; assay: OLT dose-response experiment; type: in vivo; settings: for d2 (discrimination performance): 24 h interval, mean (SEM)
[3] = test system: forskolin (FSK)-induced cAMP in neuronal cultured cells; assay: In vitro cAMP-enhancing potential (EIA); settings: 100 μM, without FSK
[4] = Cytotoxicity, lactate-dehydrogenase release; type: cell-based; settings: human, HTLA human neuronal cells
Description: To evaluate the preliminary toxic profile of the molecule XVIIIa, we performed cytotoxicity and genotoxicity assays on human neuronal cells (HTLA). For the cytotoxic potential, we analyzed the lactate-dehydrogenase release in cells exposed for 24 hours to high concentrations (100 μM) of XVIIIa or GEBR-7b (lead compound—Bruno et al, Br. J. Pharm., 2011, 164:2054).

spatial working memory = assay: Y-maze continuous alternation task; type: in vivo; settings: y-maze 6 min, vehicle 60.36
Description: Working memory function is given by the percentage of alternations made while exploring the y-maze for 6 min. No animals were excluded from the statistical analysis.
One-sample t-tests were performed to compare every condition to 50% alternations, i.e. chance level. […] FIG. 7 gives a graphical overview of the Y-maze alternation performance.

[5] = Pharmacokinetic analysis, plasma and brain; settings: male BALB/c mice, 10 mg/kg subcutaneously

Sequence of PDE4D1 (Q08499 1-584 isoform Q08499-4): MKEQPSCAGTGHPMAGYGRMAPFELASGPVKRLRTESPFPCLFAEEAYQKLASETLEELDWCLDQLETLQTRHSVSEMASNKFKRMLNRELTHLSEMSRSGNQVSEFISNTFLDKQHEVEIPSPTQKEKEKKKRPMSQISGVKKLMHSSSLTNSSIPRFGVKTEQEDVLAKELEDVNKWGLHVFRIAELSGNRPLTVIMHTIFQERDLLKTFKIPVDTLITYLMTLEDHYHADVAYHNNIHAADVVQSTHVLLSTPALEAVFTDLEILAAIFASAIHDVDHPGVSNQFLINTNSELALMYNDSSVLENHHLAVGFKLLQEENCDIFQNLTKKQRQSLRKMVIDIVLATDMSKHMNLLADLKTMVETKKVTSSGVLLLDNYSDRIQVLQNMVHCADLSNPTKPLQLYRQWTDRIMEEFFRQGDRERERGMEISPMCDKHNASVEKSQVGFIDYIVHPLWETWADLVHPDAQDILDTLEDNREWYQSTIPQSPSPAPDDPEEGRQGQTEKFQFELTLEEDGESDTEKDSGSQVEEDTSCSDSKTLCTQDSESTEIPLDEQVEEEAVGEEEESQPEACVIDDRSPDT
Sequence of PDE4D3 (Q08499 1-673 isoform Q08499-2): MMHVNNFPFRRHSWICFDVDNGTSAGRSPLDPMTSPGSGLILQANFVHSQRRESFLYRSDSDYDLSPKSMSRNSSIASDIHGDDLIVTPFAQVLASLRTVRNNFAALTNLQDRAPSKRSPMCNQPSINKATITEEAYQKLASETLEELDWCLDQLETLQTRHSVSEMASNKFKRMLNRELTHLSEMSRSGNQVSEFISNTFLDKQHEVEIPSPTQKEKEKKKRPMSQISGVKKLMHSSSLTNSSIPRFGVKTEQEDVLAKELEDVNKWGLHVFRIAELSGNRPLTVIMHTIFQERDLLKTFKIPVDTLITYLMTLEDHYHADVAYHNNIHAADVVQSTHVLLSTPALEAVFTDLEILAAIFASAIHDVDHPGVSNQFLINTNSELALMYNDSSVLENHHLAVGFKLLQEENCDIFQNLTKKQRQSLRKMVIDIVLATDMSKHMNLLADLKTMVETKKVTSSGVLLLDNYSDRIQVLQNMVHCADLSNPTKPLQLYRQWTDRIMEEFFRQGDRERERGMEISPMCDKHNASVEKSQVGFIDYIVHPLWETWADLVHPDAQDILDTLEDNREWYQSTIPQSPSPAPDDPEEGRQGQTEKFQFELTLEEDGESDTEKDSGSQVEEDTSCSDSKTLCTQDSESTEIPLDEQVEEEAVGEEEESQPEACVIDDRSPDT
T2 sequence (Q07343 1-564 isoform Q07343-2): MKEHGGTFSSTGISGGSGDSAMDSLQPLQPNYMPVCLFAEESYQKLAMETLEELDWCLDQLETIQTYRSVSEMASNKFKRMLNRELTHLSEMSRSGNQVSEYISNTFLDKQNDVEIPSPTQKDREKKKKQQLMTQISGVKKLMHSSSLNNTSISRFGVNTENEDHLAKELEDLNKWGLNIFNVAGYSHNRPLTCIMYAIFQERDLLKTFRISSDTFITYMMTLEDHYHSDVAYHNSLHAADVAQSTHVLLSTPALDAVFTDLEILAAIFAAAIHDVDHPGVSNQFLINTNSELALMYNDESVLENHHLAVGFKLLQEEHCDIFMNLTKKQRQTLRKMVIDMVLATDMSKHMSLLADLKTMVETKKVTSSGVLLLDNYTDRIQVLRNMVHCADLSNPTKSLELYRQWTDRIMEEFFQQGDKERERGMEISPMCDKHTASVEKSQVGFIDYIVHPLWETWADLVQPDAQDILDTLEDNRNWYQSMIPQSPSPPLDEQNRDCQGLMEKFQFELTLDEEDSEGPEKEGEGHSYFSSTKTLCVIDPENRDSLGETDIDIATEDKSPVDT
Sequence of PDE4A4 (P27815 whole entry): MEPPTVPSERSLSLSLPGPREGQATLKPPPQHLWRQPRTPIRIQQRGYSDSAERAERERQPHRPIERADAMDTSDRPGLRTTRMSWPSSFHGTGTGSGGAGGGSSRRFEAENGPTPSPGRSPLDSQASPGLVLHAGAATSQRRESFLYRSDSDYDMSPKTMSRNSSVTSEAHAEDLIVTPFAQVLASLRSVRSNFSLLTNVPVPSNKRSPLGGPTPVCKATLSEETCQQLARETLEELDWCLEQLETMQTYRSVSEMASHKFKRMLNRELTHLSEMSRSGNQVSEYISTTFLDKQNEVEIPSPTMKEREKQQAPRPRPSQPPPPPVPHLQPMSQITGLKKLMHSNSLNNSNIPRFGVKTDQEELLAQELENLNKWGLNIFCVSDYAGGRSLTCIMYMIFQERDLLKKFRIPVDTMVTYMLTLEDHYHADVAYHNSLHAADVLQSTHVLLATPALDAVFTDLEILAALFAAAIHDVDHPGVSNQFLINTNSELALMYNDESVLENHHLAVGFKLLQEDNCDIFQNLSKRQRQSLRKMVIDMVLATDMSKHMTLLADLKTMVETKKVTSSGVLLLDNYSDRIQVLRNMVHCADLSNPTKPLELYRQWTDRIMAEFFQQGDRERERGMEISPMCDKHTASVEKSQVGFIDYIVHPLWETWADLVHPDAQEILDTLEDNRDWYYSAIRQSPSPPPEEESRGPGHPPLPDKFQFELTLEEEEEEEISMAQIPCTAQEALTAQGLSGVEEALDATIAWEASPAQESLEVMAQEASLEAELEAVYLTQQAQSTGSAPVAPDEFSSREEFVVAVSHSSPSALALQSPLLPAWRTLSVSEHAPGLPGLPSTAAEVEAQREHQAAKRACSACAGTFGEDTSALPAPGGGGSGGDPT
T1 sequence (Q08493 107-712): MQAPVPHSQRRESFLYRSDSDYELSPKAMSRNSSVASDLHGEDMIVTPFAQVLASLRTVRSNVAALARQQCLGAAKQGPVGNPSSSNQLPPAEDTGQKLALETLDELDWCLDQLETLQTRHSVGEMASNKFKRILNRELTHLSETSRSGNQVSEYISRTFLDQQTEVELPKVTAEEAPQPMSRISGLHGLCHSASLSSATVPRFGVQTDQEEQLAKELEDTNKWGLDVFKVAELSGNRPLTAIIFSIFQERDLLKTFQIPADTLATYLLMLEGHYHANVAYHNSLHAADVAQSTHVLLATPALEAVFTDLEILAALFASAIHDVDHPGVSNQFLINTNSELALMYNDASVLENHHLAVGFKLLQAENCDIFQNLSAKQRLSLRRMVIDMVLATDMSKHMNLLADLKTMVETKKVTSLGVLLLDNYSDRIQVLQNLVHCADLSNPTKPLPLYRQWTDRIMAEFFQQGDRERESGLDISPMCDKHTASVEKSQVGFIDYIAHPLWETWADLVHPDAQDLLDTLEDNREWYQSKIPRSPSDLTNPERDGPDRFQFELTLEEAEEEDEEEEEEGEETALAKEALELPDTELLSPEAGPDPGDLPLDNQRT
Sequence of PDE4D2 (Q08499 303-809 limits assumed): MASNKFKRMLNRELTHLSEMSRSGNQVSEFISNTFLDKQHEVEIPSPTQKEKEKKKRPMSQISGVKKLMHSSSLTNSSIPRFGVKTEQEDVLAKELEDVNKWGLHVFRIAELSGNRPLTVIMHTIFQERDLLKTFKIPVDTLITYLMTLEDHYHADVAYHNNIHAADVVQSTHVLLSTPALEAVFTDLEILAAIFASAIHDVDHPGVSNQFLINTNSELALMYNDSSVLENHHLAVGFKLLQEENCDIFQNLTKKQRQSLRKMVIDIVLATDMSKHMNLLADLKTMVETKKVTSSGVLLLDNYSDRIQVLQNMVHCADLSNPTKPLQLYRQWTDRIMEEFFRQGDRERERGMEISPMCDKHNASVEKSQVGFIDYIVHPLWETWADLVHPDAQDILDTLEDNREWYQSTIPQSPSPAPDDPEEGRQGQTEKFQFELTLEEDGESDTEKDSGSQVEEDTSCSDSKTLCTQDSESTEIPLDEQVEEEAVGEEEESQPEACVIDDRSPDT

PDE4D1 % inib at 10 μM (PDE4D1): 42%
melting point: 131 to 132 °C
PDE4D2 % inib at 10 μM (PDE4D2): 23%
PDE4D3 % inib at 10 μM (PDE4D3): 27%
Structure (SMILES): COc1ccc(-c2ccn(CC(=O)N3CCOCC3)n2)cc1OC1CCCC1 [XXa, 4-({3-[3-(Cyclopentyloxy)-4-methoxyphenyl]-1H-pyrazol-1-yl}acetyl)morpholine]

PDE4C2 % inib at 10 μM (PDE4C2): 7%
PDE4D1 % inib at 10 μM (PDE4D1): 2%
PDE4A4 % inib at 10 μM (PDE4A4): 0%
PDE4B2 % inib at 10 μM (PDE4B2): 5%
melting point: 92 to 94 °C
PDE4D2 % inib at 10 μM (PDE4D2): 3%
PDE4D3 % inib at 10 μM (PDE4D3): 15%
Structure (SMILES): COc1ccc(-c2cc(C(O)CN3CC(C)OC(C)C3)on2)cc1OC1CCCC1 (stereo not shown) [XVIb, 1-{3-[3-(Cyclopentyloxy)-4-methoxyphenyl]isoxazol-5-yl}-2-(2,6-dimethylmorpholin-4-yl)ethanol]

PDE4C2 % inib at 10 μM (PDE4C2): 45%
PDE4D1 % inib at 10 μM (PDE4D1): 77%
IC50 (PDE4A4): 120 nM
PDE4A4 % inib at 10 μM (PDE4A4): 52%
IC50 (PDE4B2): 460 nM
PDE4B2 % inib at 10 μM (PDE4B2): 53.0%
PDE4D2 % inib at 10 μM (PDE4D2): 75%
PDE4D3 % inib at 10 μM (PDE4D3): 78%
IC50 (PDE4D3): 6000 nM
Structure (SMILES): COc1ccc(-c2ccn(CC(O)CN3CC(C)OC(C)C3)n2)cc1OC1CCCC1 (stereo not shown) [XVIIIb, 1-{3-[3-(Cyclopentyloxy)-4-methoxyphenyl]-1H-pyrazol-1-yl}-3-(2,6-dimethylmorpholin-4-yl)propan-2-ol dihydrocloride]

melting point: 152 to 153 °C
PDE4D3 % inib at 10 μM (PDE4D3): 35%
Structure (SMILES): COc1ccc(-c2cc(C(=O)N3CC(C)OC(C)C3)on2)cc1OC1CCCC1 (stereo not shown) [XVIIb, 4-({3-[3-(Cyclopentyloxy)-4-methoxyphenyl]isoxazol-5-yl}carbonyl)-2,6-dimethylmorpholine]

melting point: 169 to 171 °C
PDE4D3 % inib at 10 μM (PDE4D3): 7%
Structure (SMILES): COc1ccc(-c2ccn(CC(=O)N3CCOCC3)c2)cc1OC1CCCC1 [XXIIIa, 2-{3-[3-(cyclopentyloxy)-4-methoxy-phenyl]-pyrrol-1-yl}-1-morpholin-4-yl-ethanone]

Continued, molecule first:

Structure (SMILES): COc1ccc(C2=NOC(CC(=O)N(CCO)CCO)C2)cc1OC1CCCC1 (stereo not shown) [XIVg, 2-{3-[3-(Cyclopentyloxy)-4-methoxyphenyl]-4,5-dihydroisoxazol-5-yl}-N,N-bis(2-hydroxyethyl)acetamide]
PDE4C2 % inib at 10 μM (PDE4C2): 40%
PDE4A4 % inib at 10 μM (PDE4A4): 69%
PDE4B2 % inib at 10 μM (PDE4B2): 68%
melting point: 136 to 138 °C
PDE4D3 % inib at 10 μM (PDE4D3): 65%
IC50 (PDE4D3): 1110 nM

Structure (SMILES): COc1ccc(-c2ccn(CCC(=O)N3CCOCC3)n2)cc1OC1CCCC1 [XXIa, 4-(3-{3-[3-(cyclopentyloxy)-4-methoxyphenyl]-1H-pyrazol-1-yl}propanoyl)morpholine]
PDE4C2 % inib at 10 μM (PDE4C2): 10%
PDE4D3 % inib at 10 μM (PDE4D3): 42%

Structure (SMILES): COc1ccc(C2=NOC(CC(=O)N3CCCC3)C2)cc1OC1CCCC1 (stereo not shown) [XIVd, 3-[3-(Cyclopentyloxy)-4-methoxyphenyl]-5-(2-oxo-2-pyrrolidin-1-ylethyl)-4,5-dihydroisoxazole]
PDE4C2 % inib at 10 μM (PDE4C2): 47%
PDE4A4 % inib at 10 μM (PDE4A4): 66%
PDE4B2 % inib at 10 μM (PDE4B2): 59%
PDE4D3 % inib at 10 μM (PDE4D3): 57%
IC50 (PDE4D3): 1220 nM

Structure (SMILES): COc1ccc(C2=NOC(CC(=O)N3CC(C)OC(C)C3)C2)cc1OC1CCCC1 (stereo not shown) [XIVb, 4-({3-[3-(Cyclopentiloxy)-4-methoxyphenyl]-4,5-dihydroisoxazol-5-yl}acetil) 2,6-dimethylmorpholine]
PDE4C2 % inib at 10 μM (PDE4C2): 23%
PDE4A4 % inib at 10 μM (PDE4A4): 45%
PDE4B2 % inib at 10 μM (PDE4B2): 27%
melting point: 104 to 105 °C
PDE4D3 % inib at 10 μM (PDE4D3): 51%
IC50 (PDE4D3): 5580 nM

Structure (SMILES): COc1ccc(-c2ccn(CCC(=O)N3CC(C)OC(C)C3)n2)cc1OC1CCCC1 (stereo not shown) [XXIb, 4-(3-{3-[3-(cyclopentyloxy)-4-methoxyphenyl]-1H-pyrazol-1-yl}propanoyl)2,6-dimethylmorpholine]
PDE4C2 % inib at 10 μM (PDE4C2): 42%
PDE4A4 % inib at 10 μM (PDE4A4): 28%
PDE4B2 % inib at 10 μM (PDE4B2): 28%
PDE4D3 % inib at 10 μM (PDE4D3): 53%
IC50 (PDE4D3): 1800 nM

Structure (SMILES): COc1ccc(C2=NOC(CC(=O)N3CCOCC3)C2)cc1OC1CCCC1 (stereo not shown) [XIVa, 4-({3-[3-(Cyclopentyloxy)-4-methoxyphenyl]-4,5-dihydroisoxazol-5-yl}acetyl)morpholine]
melting point: 144 °C and 144 to 145 °C
PDE4D3 % inib at 10 μM (PDE4D3): 29%

Structure (SMILES): COc1ccc(-c2ccn(CC(=O)N3CC(C)OC(C)C3)c2)cc1OC1CCCC1 (stereo not shown) [XXIIIb, 2-{3-[3-(Cyclopentyloxy)-4-methoxy-phenyl]-pyrrol-1-yl}-1-(2,6-dimethyl-morpholin-4-yl)-ethanone]
melting point: 108 to 112 °C
PDE4D3 % inib at 10 μM (PDE4D3): 13%

Structure (SMILES): COc1ccc(C2=NOC(C(=O)N3CCOCC3)C2)cc1OC1CCCC1 (stereo not shown) [XIIIa, 4-({3-[3-(Cyclopentyloxy)-4-methoxyphenyl]-4,5-dihydroisoxazol-5-yl}carbonyl)morpholine]
melting point: 115 to 116 °C
PDE4D3 % inib at 10 μM (PDE4D3): 21%

Structure (SMILES): OC(CN1CCOCC1)Cn1ccc(-c2ccc(OC(F)F)c(OC3CCCC3)c2)n1 (stereo not shown) [XXIIa, 1-{3-[3-(cyclopentyloxy)-4-(difluoromethoxy)phenyl]-1H-pyrazol-1-yl}-3-morpholin-4-ylpropan-2-ol]
Time anesthetized ([1]; 0.003 mg/kg): 112.28%
Time anesthetized ([1]; 0.03 mg/kg): 109.52%
Time anesthetized ([1]; 0.3 mg/kg): 107.45%
emetic-like effects ([1]; 0.003-3.0 mg/kg, one-way ANOVA n.s.): does not have emetic-like effects
Time anesthetized ([1]; 3.0 mg/kg): 91.22%
DNA damage (γ-H2AX) (HTLA cells): not observed
d2 (discrimination performance) ([2]; 0.0003 mg/kg): 0.02 (0.05)
d2 (discrimination performance) ([2]; 0.001 mg/kg): 0.06 (0.05)
memory function (OLT) ([2]; 0.003 mg/kg): fully enhance memory function
d2 (discrimination performance) ([2]; 0.003 mg/kg, p < 0.001 vs zero): 0.34 (0.05) ^###
d2 (discrimination performance) ([2]; 0.01 mg/kg): 0.05 (0.03)
memory improvement (OLT) ([2]; 0.0003, 0.001 and 0.01 mg/kg): did not show any memory improvement at all
PDE4A4 % inib at 10 μM (PDE4A4): 11%
PDE4B2 % inib at 10 μM (PDE4B2): 26%
basal cAMP levels [3]: without affecting the basal cAMP levels
cytotoxicity at 24 h, 100 µM [4]: 0.1 ± 0.36%
Alternations % (spatial working memory; 0.001 mg/kg): 60.86 ^### %
Alternations % (spatial working memory; 0.003 mg/kg): 63.54 ^### %
Alternations % (spatial working memory; 0.01 mg/kg): 61.88 ^### %
AUC0-t ([5]; brain): 2330 ng·h/g
t1/2 ([5]; brain): 57 min
AUC0-t ([5]; plasma): 861 ng·h/mL
Cmax ([5]; plasma): 993 ng/mL
Tmax ([5]; plasma): 19.8 min

Structure (SMILES): COc1ccc(-c2ccn(CC(=O)N3CC(C)OC(C)C3)n2)cc1OC1CCCC1 (stereo not shown) [XXb, 4-({3-[3-(Cyclopentyloxy)-4-methoxyphenyl]-1H-pyrazol-1-yl}acetyl)2,6-dimethylmorpholine]
PDE4D1 % inib at 10 μM (PDE4D1): 18%
melting point: 99 to 100 °C
PDE4D2 % inib at 10 μM (PDE4D2): 13%
PDE4D3 % inib at 10 μM (PDE4D3): 23%
